These results are taken from ChEMBL document CHEMBL1201862, “PubChem BioAssay data set” (2004).

Experiment in all cases: growth of human tumour cells (NCI), 48 h
The subject of test [1] is MDA-N.
Test [2] relates to CCRF-CEM.
Test [3] relates to A549.
Test [4] has as its system OVCAR-3.
Test [5] deals with NCI-H23.
Test [6] has as its system RXF 393.
Test [7] relates to U-251.
The test system of test [8] is SR.
Test [9] deals with UACC-257.
The test system of test [10] is BT-549.
The subject of test [11] is UO-31.
The test system of test [12] is HCT-15.
Test [13] relates to UACC-62.
For test [14], the system named is KM12.
Test [15] deals with MCF7.
In test [16] the test system is MOLT-4.
Test [17] has as its system DU-145.
Test [18] relates to MDA-MB-435.
The test system of test [19] is RPMI-8226.

Each structure is given as a SMILES string.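 Compound exposure: 48 hours, 5 concentrations, 96-well plates. Abbreviation: GI50, concentration required for 50% inhibition of growth.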 The source made the active and inactive calls. No stated cut-off is given here; in the data, active = GI50 up to about 1.1 µM and inactive = higher. Where only a bound is given, the exact number is not on record here.

As to `Cn1c(=O)n2c(-c3ccccc3)c(-c3ccccc3)n2c1=O`, the GI50 in test [1], in [2], in test [3], in test [4], in test [5] and in test [6] was > 100 µM (inactive) each time. Besides, the GI50 in test [7] is > 100 µM (inactive); in test [8] it was > 100 µM (inactive); in test [9], > 100 µM (inactive); in test [10], > 100 µM (inactive); in test [11], 82 µM (inactive); in test [12] it was > 100 µM. For the same compound, the GI50 in test [13], in test [14], in test [15] and in [16] was > 100 µM (inactive) each time.
Regarding `O=C(O)c1c(CC(Cc2ccc3c(c2)CCC3)C(=O)O)ccc2c1CCC2` (stereo unspecified), the GI50 in [1], in [2], in test [3], in [4], in [17] and in test [18] was > 100 µM (inactive) throughout. Moreover, the GI50 in test [19], in test [5], in test [7], in test [8], in [9] and in test [10] was > 100 µM (inactive) each time. The GI50 was > 100 µM (inactive) in test [11]; > 100 µM in test [12]; > 100 µM (inactive) in test [14]; > 100 µM (inactive) in test [15]; > 100 µM (inactive) in test [16].
In the case of `O=C1C(C(O)(C(F)(F)Cl)C(F)(F)Cl)CCCC1C(O)(C(F)(F)Cl)C(F)(F)Cl` (stereo unspecified), the GI50 in [1], in [3], in [4], in [17], in [18] and in test [5] was > 10 µM (inactive) throughout. For the same compound, the GI50 in test [6] is > 10 µM (inactive); in [7], > 10 µM (inactive); in [9] it was > 10 µM (inactive); in test [10] it was > 10 µM (inactive); in test [12], > 10 µM; in test [13], > 10 µM (inactive). Besides, the GI50 in [14] and in test [15] was > 10 µM (inactive) each time.
In the case of `COc1cc(Nc2cc(Cl)cc(Cl)c2)nc(N)n1`, the GI50 is 27.1 µM (inactive) in [1]; 17.6 µM (inactive) in [2]; 19.9 µM (inactive) in test [3]; 17.2 µM (inactive) in test [4]; 18.8 µM (inactive) in test [17]; 24.5 µM (inactive) in test [18]. Moreover, the GI50 is 19.9 µM (inactive) in test [19]; 20.3 µM (inactive) in test [5]; 14.5 µM (inactive) in test [6]; 15.2 µM (inactive) in test [7]; 19.3 µM (inactive) in test [9]; 17.1 µM (inactive) in test [10]. The GI50 was 16.9 µM (inactive) in [11]; 17.1 µM in test [12]; 17.1 µM (inactive) in test [13]; 17.1 µM (inactive) in [14]; 27.2 µM (inactive) in test [15]; 16.6 µM (inactive) in [16].
As to `C/C(=C1/N=C(c2ccccc2)OC1=O)c1ccccc1`, the GI50 in test [1] is > 100 µM (inactive); in test [2], 33.4 µM (inactive); in test [3] it was > 100 µM (inactive); in [4], 74.5 µM (inactive); in test [17] it was > 100 µM (inactive); in test [18], 87.3 µM (inactive). Further, the GI50 was 23.3 µM (inactive) in test [19]; > 100 µM (inactive) in test [5]; > 100 µM (inactive) in test [7]; 39.5 µM (inactive) in test [8]; > 100 µM (inactive) in test [9]; > 100 µM (inactive) in [10]. For the same compound, the GI50 in test [12] is 99.1 µM; in test [13] it was > 100 µM (inactive); in test [14], 61.4 µM (inactive); in [15], 82 µM (inactive); in test [16] it was 95.1 µM (inactive).
As to `C=CCOC(=O)C1=C(CCC[C@@H](C)O[Si](C)(C)C(C)(C)C)N=C(N)N2[C@H](CCO)CC[C@@H]12`, the GI50 in test [1] is 17 µM (inactive); in test [3], 10.3 µM (inactive); in test [4], 11.1 µM (inactive); in test [17], 14.3 µM (inactive); in [18] it was 14.7 µM (inactive); in test [19] it was 9.44 µM (inactive). Also, the GI50 in test [5] is 17.7 µM (inactive); in test [7], 12.3 µM (inactive); in test [9], 15.6 µM (inactive); in [10], 21.8 µM (inactive); in [11], 16.1 µM (inactive); in test [12] it was 17.7 µM. The GI50 in [13] was 15.8 µM (inactive); in [14] it was 11.3 µM (inactive); in test [15], 7.69 µM (inactive); in [16] it was 10.5 µM (inactive).
For the compound `O=C1N/C(=N/N=C/C(O)C(O)C(O)CO)N/C1=C\c1ccco1` (stereo unspecified), the GI50 in test [1] is > 100 µM (inactive); in test [2], 93.1 µM (inactive); in test [3], 64.6 µM (inactive); in [4] it was > 100 µM (inactive); in test [17], > 100 µM (inactive); in test [18], > 100 µM (inactive). For the same compound, the GI50 in test [19], in test [5], in [6], in test [7], in test [9] and in test [10] was > 100 µM (inactive) in each case. Further, the GI50 was > 100 µM in [12]; > 100 µM (inactive) in test [13]; > 100 µM (inactive) in test [14]; > 100 µM (inactive) in [15]; > 100 µM (inactive) in test [16].
In the case of `CCOC(=O)/C(C(=O)Nc1ccc(Cl)cc1)=C(/N)N1CCOCC1`, the GI50 in test [1], in test [2], in test [3], in test [4], in [17] and in [18] was > 100 µM (inactive) each time. Also, the GI50 in test [19], in [5], in [6], in [7], in test [9] and in [10] was > 100 µM (inactive) each time. The GI50 in test [12] is > 100 µM; in test [13], > 100 µM (inactive); in test [14], > 100 µM (inactive); in [15] it was > 100 µM (inactive); in [16], > 100 µM (inactive).
Consider `O=C1CC2(CCNCC2)C(=O)N1N1CCCCC1`, for which the GI50 in [1], in [2], in test [3], in test [4], in [17] and in test [19] was > 100 µM (inactive) throughout. For the same compound, the GI50 in test [5], in test [6], in test [7], in test [8], in test [9] and in test [10] was > 100 µM (inactive) in each case. The GI50 is > 100 µM (inactive) in test [11]; > 100 µM in test [12]; > 100 µM (inactive) in [13]; > 100 µM (inactive) in test [14]; > 100 µM (inactive) in test [15]; > 100 µM (inactive) in test [16].
With `O=C1CCCCc2cccc(O)c21`, the GI50 in test [2], in test [4], in test [17], in test [18], in test [19] and in [5] was > 100 µM (inactive) each time. Further, the GI50 in test [6], in test [7], in [8], in test [9], in [10] and in test [11] was > 100 µM (inactive) each time. For the same compound, the GI50 is > 100 µM in test [12]; > 100 µM (inactive) in [13]; > 100 µM (inactive) in test [14]; > 100 µM (inactive) in test [15]; > 100 µM (inactive) in test [16].
`NCOC(=O)Cc1ccc(Br)cc1`: the GI50 is > 100 µM (inactive) in test [1]; 80 µM (inactive) in [2]; > 100 µM (inactive) in test [3]; > 100 µM (inactive) in test [4]; > 100 µM (inactive) in test [17]; > 100 µM (inactive) in test [19]. Moreover, the GI50 was > 100 µM (inactive) in [5]; > 100 µM (inactive) in test [6]; > 100 µM (inactive) in test [7]; 0.383 µM (active) in test [8]; > 100 µM (inactive) in [9]; > 100 µM (inactive) in test [10]. Further, the GI50 in test [11] is > 100 µM (inactive); in test [12], > 100 µM; in [13], > 100 µM (inactive); in test [15], > 100 µM (inactive); in [16], 17.4 µM (inactive).
`COc1cc(Nc2cnc3cc(F)c(F)cc3n2)cc(OC)c1OC`: the GI50 in test [1], in test [2], in test [3], in [4], in test [17] and in test [18] was > 100 µM (inactive) throughout. The GI50 in test [5] is 73.6 µM (inactive); in [6], 36.8 µM (inactive); in test [7], > 100 µM (inactive); in test [9], > 100 µM (inactive); in test [10] it was > 100 µM (inactive); in test [11], > 100 µM (inactive). For the same compound, the GI50 in test [12] is > 100 µM; in test [13], > 100 µM (inactive); in test [14] it was 69.3 µM (inactive); in test [15], > 100 µM (inactive); in test [16], > 100 µM (inactive).
